# Tests used:
# Format in all cases: functional
# Mus musculus [1] = organism: Mus musculus; experiment: Effect on plasma total cholesterol in high cholesterol-fed mice after 10 day
# Mus musculus [2] = organism: Mus musculus; experiment: Body weight of the high cholesterol-fed mice after 10 day
# Mus musculus [3] = organism: Mus musculus; experiment: Body weight of the high cholesterol-fed mice after 0 day
# Mus musculus [4] = organism: Mus musculus; experiment: Effect on plasma total cholesterol in high cholesterol-fed mice after 0 day
Structure (SMILES),Total cholesterol (Mus musculus [1]) [mg/dL],Body weight (Mus musculus [2]) [g],Body weight (Mus musculus [3]) [g],Total cholesterol (Mus musculus [4]) [mg/dL]
CCOc1cc(O)c2c(c1)OC(c1ccc(OC)c(O)c1)CC2=O (configuration not stated),218,22.5,21.9,102
COc1ccc(C2CC(=O)c3c(O)cc(OC(C)=O)cc3O2)cc1O (configuration not stated),220,23.7,23.4,96
CCCCCCCC/C=C\CCCCCCCC(=O)Oc1cc(O)c2c(c1)OC(c1ccc(OC)c(O)c1)CC2=O (configuration not stated),–,23.8,22.3,–
CCCCCCCCCCCCCCCC(=O)Oc1cc(O)c2c(c1)OC(c1ccc(OC)c(O)c1)CC2=O (configuration not stated),209,23.4,21.7,97
CCCCCCCC/C=C\CCCCCCCCOc1cc(O)c2c(c1)OC(c1ccc(OC)c(O)c1)CC2=O (configuration not stated),192,23.7,23.4,96
CCCCCCCCCCCCCCCCCCOc1cc(O)c2c(c1)OC(c1ccc(OC)c(O)c1)CC2=O (configuration not stated),208,24.4,23.1,101
COc1ccc([C@@H]2CC(=O)c3c(O)cc(O)cc3O2)cc1O [HESPERETIN],216,25.6,25.4,103
CCCCCCCCCCCCOc1cc(O)c2c(c1)OC(c1ccc(OC)c(O)c1)CC2=O (configuration not stated),189,22.4,22,95
CCCCCCCCCCCC(=O)Oc1cc(O)c2c(c1)OC(c1ccc(OC)c(O)c1)CC2=O (configuration not stated),192,22.4,22.4,95
CCCCCCCCCCCCCCCCOc1cc(O)c2c(c1)OC(c1ccc(OC)c(O)c1)CC2=O (configuration not stated),202,23,22.5,93
CCCCCCCCCCCCCCCCCC(=O)Oc1cc(O)c2c(c1)OC(c1ccc(OC)c(O)c1)CC2=O (configuration not stated),214,23.7,22.3,95
